Test results reported in PubChem BioAssay (NCI).
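These data come from cells grown in 96-well plates and exposed to compound for 48 hours at five concentrations. TGI is the concentration that stops growth completely.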

Key:
Experiment in all cases: NCI tumour cell line growth inhibition, 48 h
[1] = test system: CAKI-1 renal
[2] = test system: DMS 273 small cell lung
[3] = test system: HCT-15 colon
[4] = test system: HL-60(TB) leukemia
[5] = test system: HT29 colon
[6] = test system: KM12 colon
[7] = test system: NCI-H226 lung
[8] = test system: NCI-H522 lung
[9] = test system: OVCAR-4 ovarian
[10] = test system: OVCAR-5 ovarian
[11] = test system: OVCAR-8 ovarian
[12] = test system: SF-268 CNS
[13] = test system: SK-MEL-2 melanoma
[14] = test system: SNB-75 CNS
[15] = test system: U251 CNS
[16] = test system: UACC-257 melanoma
[17] = test system: UACC-62 melanoma

Brc1nc2c3ccccc3ncn2c1Br gave a TGI [1] of 79.5 µM, a TGI [2] of over 100 µM and a TGI [3] of over 100 µM. The TGI [4] was over 100 µM, the TGI [5] was over 100 µM and the TGI [6] was over 100 µM. It also gave a TGI [7] of over 100 µM, a TGI [8] of 53.6 µM and a TGI [9] of 42.7 µM. For the same molecule, the TGI [10] was over 100 µM, the TGI [11] was over 100 µM and the TGI [12] was over 100 µM. It also gave a TGI [13] of 82.6 µM, a TGI [14] of 44.2 µM and a TGI [15] of over 100 µM. For the same molecule, the TGI [16] was over 100 µM and the TGI [17] was 49.2 µM.
